In US20220387457A1 (Qlaris Bio, Inc., priority 2020, published 2022):

Assays:
[1] = test system: α-SMA, CD31, endothelin-I, fibronectin, VE-cadherin, phospho-eNOS and total eNOS; assay: Protein expression (western blot, immunocytochemistry) in 3D HTM/SC constructs; type: cell-based, human; conditions: levcromakalim 1, 10 or 100 μM, Y-27632 10 μM
Protocol: Bioengineered 3D conventional outflow tract constructs using 4 donors (ages 47-91) were treated with […] (5 ng/mL) for 6 days. […] Protein expression of α-smooth muscle actin (α-SMA), CD31, endothelin-I, fibronectin, VE-cadherin, phospho-eNOS and total eNOS was analyzed via western blot. Cellular expression of α-SMA, fibronectin, phospho-eNOS and total eNOS was determined by immunocytochemistry and confocal microscopy. Statistical significance was determined by one-way ANOVA with a Tukey's multiple comparisons test, or by two-way ANOVA.

[2] = target: T1, human Kir6.2/SUR2B KATP channel (Homo sapiens, UniProt O60706); assay: FLIPR membrane potential assay in HEK-Kir6.2/SUR2B cells; type: cell-based; conditions: glibenclamide 10 μM
T1 construct: expressed in transfected cells
Protocol: The ability of CKLP1 and the active moiety of CKLP1, leveromakalim, to pharmacologically modulate the function of the human ATP-sensitive potassium channel comprised of Kir6.2 (encoded by the human gene KCNJ11) coupled to the sulfonylurea receptor SUR2B (encoded by the human gene ABCC9) was studied.
Compounds were dissolved up to 10 mM stock solution in DMSO. Ten-point concentration response curves were generated at 100× concentration in 100% DMSO. Compound source plates were made by serially diluting 10 mM compound stocks in DMSO to generate a progressive semilog dilution schema. Dose response stock plate (10 μL) were then transferred into assay plates containing 90 μL of assay buffer, generating 10× working concentrations. Final assay test concentration ranges of 100 μM to 0.003 μM with a final DMSO concentration of 1.0%.
Human embryonic kidney (HEK) cells stably expressing human Kir6.2/SUR2B KATP channel subunits were plated onto 96 well, black poly-d-lysine (PDL)-coated microplates and maintained in growth media the day prior to use for experiments. Media was removed from the plates and 90 μL of 1× stock of the membrane potential sensitive fluorescent dye FMP-Blue resuspended in assay buffer (EBSS—in mM: NaCl 145, KCl 2, Glucose 5, CaCl2) 1.8, MgCl2 0.8, HEPES 10, pH 7.4 with NaOH, 290-300 mOSm) was added to the cells. Cells were incubated at room temperature, protected from light, for 45-60 minutes. After the incubation period, cell, test compound and glibenclamide plates were loaded onto the fluorescence plate reader (FLIPR-TETRA™) and the scanning initiated. The FLIPR measured a 10 second baseline and then added 10 μL of 10× the final desired concentration of test agent. Changes in fluorescence were monitored for an additional 5 minutes. After the 5-minute compound incubation, 10 μL of the receptor inhibitor glibenclamide was added to the cell plate (10 uM final glibenclamide concentration). Changes in fluorescence was then monitored for an additional 5 minutes.
Compound modulation of Kir6.2/SUR2B KATP channel mediated changes in cellular membrane potential was determined as follows. After the administration of compound, FMP fluorescence was monitored for a 5-minute period. The following parameters were recorded and exported from the FLIPR: the average relative fluorescence response (RFU) of 5 images taken at the 5-minute point in the assay with the average background EBSS buffer response subtracted. […] Test agent effect was calculated as % activation using the following formula: […]
Curve fits were performed in GraphPad Prism graphing software using a 4-parameter, variable slope fit equation.

[3] = test system: single KATP channels; conditions: in the presence of ATP; Brayden et al. 1991; cited from earlier work
[4] = cited from earlier work

T1 sequence (O60706 1-1549 isoform O60706-2): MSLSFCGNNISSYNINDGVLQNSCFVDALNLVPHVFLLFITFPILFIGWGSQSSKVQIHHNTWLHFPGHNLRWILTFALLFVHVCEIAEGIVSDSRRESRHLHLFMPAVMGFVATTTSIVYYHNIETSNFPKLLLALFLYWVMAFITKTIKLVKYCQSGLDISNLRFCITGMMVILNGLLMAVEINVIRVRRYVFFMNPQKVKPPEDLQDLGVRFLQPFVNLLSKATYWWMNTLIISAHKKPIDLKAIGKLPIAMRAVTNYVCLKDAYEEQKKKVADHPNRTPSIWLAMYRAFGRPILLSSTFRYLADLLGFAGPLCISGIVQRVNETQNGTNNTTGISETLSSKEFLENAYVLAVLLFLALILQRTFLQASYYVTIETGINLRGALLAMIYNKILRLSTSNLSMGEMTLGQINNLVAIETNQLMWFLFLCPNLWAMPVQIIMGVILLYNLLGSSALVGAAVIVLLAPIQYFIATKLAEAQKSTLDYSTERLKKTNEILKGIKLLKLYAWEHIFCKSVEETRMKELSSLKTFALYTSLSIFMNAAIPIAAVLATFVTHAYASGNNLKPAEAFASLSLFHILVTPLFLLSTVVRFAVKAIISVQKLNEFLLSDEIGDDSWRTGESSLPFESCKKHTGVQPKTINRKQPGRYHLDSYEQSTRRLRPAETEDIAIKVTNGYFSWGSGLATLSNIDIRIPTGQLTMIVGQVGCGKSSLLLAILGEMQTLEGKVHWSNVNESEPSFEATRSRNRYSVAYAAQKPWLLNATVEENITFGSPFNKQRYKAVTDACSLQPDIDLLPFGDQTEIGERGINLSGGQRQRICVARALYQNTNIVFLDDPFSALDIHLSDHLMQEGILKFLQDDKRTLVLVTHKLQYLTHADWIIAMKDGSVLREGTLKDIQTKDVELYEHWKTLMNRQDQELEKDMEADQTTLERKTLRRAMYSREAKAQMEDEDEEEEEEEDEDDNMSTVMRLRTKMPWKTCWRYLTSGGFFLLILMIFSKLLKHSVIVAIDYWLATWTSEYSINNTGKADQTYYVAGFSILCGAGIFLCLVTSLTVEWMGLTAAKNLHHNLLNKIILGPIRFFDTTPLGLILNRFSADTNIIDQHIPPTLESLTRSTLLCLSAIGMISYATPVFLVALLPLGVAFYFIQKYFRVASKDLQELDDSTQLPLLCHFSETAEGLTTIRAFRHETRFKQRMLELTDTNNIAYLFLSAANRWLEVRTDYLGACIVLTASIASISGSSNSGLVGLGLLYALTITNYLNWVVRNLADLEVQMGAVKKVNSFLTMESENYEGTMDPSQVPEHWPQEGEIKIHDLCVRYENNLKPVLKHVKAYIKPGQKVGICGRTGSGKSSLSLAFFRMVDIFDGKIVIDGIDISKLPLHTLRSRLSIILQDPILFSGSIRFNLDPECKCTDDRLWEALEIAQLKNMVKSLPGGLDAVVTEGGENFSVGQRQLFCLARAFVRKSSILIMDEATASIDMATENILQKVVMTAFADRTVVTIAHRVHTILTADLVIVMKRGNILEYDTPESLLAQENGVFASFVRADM
T1 sequence (Q14654 whole entry partner): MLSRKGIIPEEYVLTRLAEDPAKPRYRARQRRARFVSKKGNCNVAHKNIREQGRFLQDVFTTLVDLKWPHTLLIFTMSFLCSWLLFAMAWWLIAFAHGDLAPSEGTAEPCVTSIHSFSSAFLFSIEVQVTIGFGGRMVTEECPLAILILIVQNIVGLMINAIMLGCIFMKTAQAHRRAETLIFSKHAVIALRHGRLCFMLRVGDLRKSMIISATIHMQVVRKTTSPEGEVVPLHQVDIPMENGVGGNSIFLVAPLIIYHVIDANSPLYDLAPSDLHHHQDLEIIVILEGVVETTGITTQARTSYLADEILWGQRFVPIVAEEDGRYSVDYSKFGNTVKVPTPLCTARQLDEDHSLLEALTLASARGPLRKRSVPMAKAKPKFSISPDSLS

hyperpolarization reversed by coadministration of glibenclamide [2]	SMILES	expression of the cell adhesion proteins CD31 and VE-Cadherin [1]	expression of the cell adhesion proteins CD31 and VE-Cadherin ([1]; listed as Y27632)	increase of open-state probability (Popen) of single KATP channels [3]	solubility in water [4]
–	C[C@@H](N)[C@H]1CC[C@H](C(=O)Nc2ccncc2)CC1 [Y-27632]	significantly decreased	decreased expression	–	–
reversed	CC1(C)Oc2ccc(C#N)cc2C(N2CCCC2=O)C1O (stereo not drawn) [Cromakalim, cromakalim]	–	–	more than 9 fold	substantially insoluble in water
reversed	CC(N/C(=N\C#N)Nc1ccncc1)C(C)(C)C (stereo not drawn) [Pinacidil, pinacidil, reference compound]	–	–	–	–
